In the supplement of paper PMC10307832:

Experiments:
Test in all cases: relative viability (nuclei count vs DMSO), 5 days (fraction); higher = more cells survive
NCI-H322M = tested on: NCI-H322M
Procedure, shortened: (§1)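 Lung cancer cell lines in 1536-well plates were dosed by pin tool the day after seeding, either with one drug alone or with a fixed anchor-drug dose plus five library-drug doses (not always all listed) in √10 steps. After 5 days, cells were fixed and their nuclei stained in one step (final 0.05% Triton X-100, 1% formaldehyde, 1 ug/ml Hoechst), then counted on 4× images. Relative viability is the nuclei count in treated wells divided by that in vehicle wells. Values are medians of duplicate plates.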

NCI-H727 = tested on: NCI-H727
Procedure, shortened: as §1

NCI-H2009 = tested on: NCI-H2009
Procedure, shortened: as §1

NCI-H1355 = tested on: NCI-H1355
Procedure, shortened: as §1

NCI-H23 = tested on: NCI-H23
Procedure, shortened: as §1

NCI-H650 = tested on: NCI-H650
Procedure, shortened: as §1

NCI-H2023 = tested on: NCI-H2023
Procedure, shortened: as §1

SK-MES-1 = tested on: SK-MES-1
Procedure, shortened: as §1

NCI-H2170 = tested on: NCI-H2170
Procedure, shortened: as §1

NCI-H2405 = tested on: NCI-H2405
Procedure, shortened: as §1

RERF-LC-KJ = tested on: RERF-LC-KJ
Procedure, shortened: as §1

LOU-NH91 = tested on: LOU-NH91
Procedure, shortened: as §1

HOP-62 = tested on: HOP-62
Procedure, shortened: as §1

NCI-H1437 = tested on: NCI-H1437
Procedure, shortened: as §1

NCI-H2085 = tested on: NCI-H2085
Procedure, shortened: as §1

LCLC-97TM1 = tested on: LCLC-97TM1
Procedure, shortened: as §1

HCC-78 = tested on: HCC-78
Procedure, shortened: as §1

NCI-H1792 = tested on: NCI-H1792
Procedure, shortened: as §1

ABC-1 = tested on: ABC-1
Procedure, shortened: as §1

UMC-11 = tested on: UMC-11
Procedure, shortened: as §1

NCI-H1755 = tested on: NCI-H1755
Procedure, shortened: as §1

O=c1[nH]c2ccccc2n1C1CCN(CCCC(c2ccc(F)cc2)c2ccc(F)cc2)CC1 [Pimozide] + CS(=O)(=O)CCNCc1ccc(-c2ccc3ncnc(Nc4ccc(OCc5cccc(F)c5)c(Cl)c4)c3c2)o1 [Lapatinib] (partner 2 µM)
relative viability (NCI-H322M; first compound 0.253 µM): 0.56 | relative viability (NCI-H322M; first compound 0.8 µM): 0.584 | relative viability (NCI-H322M; first compound 2.53 µM): 0.635 | relative viability (NCI-H322M; first compound 8 µM): 0.525 | relative viability (NCI-H727; first compound 0.08 µM): 0.8 | relative viability (NCI-H727; first compound 0.253 µM): 0.922 | relative viability (NCI-H727; first compound 0.8 µM): 0.85 | relative viability (NCI-H727; first compound 2.53 µM): 0.754 | relative viability (NCI-H727; first compound 8 µM): 0.769 | relative viability (NCI-H2009; first compound 0.08 µM): 0.955 | relative viability (NCI-H2009; first compound 0.253 µM): 0.977 | relative viability (NCI-H2009; first compound 0.8 µM): 0.861 | relative viability (NCI-H2009; first compound 2.53 µM): 0.715 | relative viability (NCI-H2009; first compound 8 µM): 0.763 | relative viability (NCI-H1355; first compound 0.08 µM): 1.02 | relative viability (NCI-H1355; first compound 0.253 µM): 1.09 | relative viability (NCI-H1355; first compound 0.8 µM): 0.933 | relative viability (NCI-H1355; first compound 2.53 µM): 0.939 | relative viability (NCI-H1355; first compound 8 µM): 0.982 | relative viability (NCI-H23; first compound 0.08 µM): 0.938 | relative viability (NCI-H23; first compound 0.253 µM): 1.01 | relative viability (NCI-H23; first compound 0.8 µM): 1.06 | relative viability (NCI-H23; first compound 2.53 µM): 0.847 | relative viability (NCI-H23; first compound 8 µM): 0.922 | relative viability (NCI-H650; first compound 0.08 µM): 1.03 | relative viability (NCI-H650; first compound 0.253 µM): 0.861 | relative viability (NCI-H650; first compound 0.8 µM): 0.694 | relative viability (NCI-H650; first compound 2.53 µM): 0.716 | relative viability (NCI-H650; first compound 8 µM): 0.835 | relative viability (NCI-H2023; first compound 0.08 µM): 0.793 | relative viability (NCI-H2023; first compound 0.253 µM): 0.964 | relative viability (NCI-H2023; first compound 0.8 µM): 0.592 | relative viability (NCI-H2023; first compound 2.53 µM): 0.729 | relative viability (NCI-H2023; first compound 8 µM): 0.412 | relative viability (SK-MES-1; first compound 0.08 µM): 0.468 | relative viability (SK-MES-1; first compound 0.253 µM): 0.445 | relative viability (SK-MES-1; first compound 0.8 µM): 0.451 | relative viability (SK-MES-1; first compound 2.53 µM): 0.491 | relative viability (SK-MES-1; first compound 8 µM): 0.507 | relative viability (NCI-H2170; first compound 0.08 µM): 0.277 | relative viability (NCI-H2170; first compound 0.253 µM): 0.278 | relative viability (NCI-H2170; first compound 0.8 µM): 0.276 | relative viability (NCI-H2170; first compound 2.53 µM): 0.283 | relative viability (NCI-H2170; first compound 8 µM): 0.272 | relative viability (NCI-H2405; first compound 0.08 µM): 1.02 | relative viability (NCI-H2405; first compound 0.253 µM): 0.833 | relative viability (NCI-H2405; first compound 0.8 µM): 0.984 | relative viability (NCI-H2405; first compound 2.53 µM): 1.04 | relative viability (NCI-H2405; first compound 8 µM): 0.79 | relative viability (RERF-LC-KJ; first compound 0.08 µM): 0.885 | relative viability (RERF-LC-KJ; first compound 0.253 µM): 0.801 | relative viability (RERF-LC-KJ; first compound 0.8 µM): 0.776 | relative viability (RERF-LC-KJ; first compound 2.53 µM): 0.784 | relative viability (RERF-LC-KJ; first compound 8 µM): 0.742 | relative viability (LOU-NH91; first compound 0.08 µM): 0.736 | relative viability (LOU-NH91; first compound 0.253 µM): 0.694 | relative viability (LOU-NH91; first compound 0.8 µM): 0.751 | relative viability (LOU-NH91; first compound 2.53 µM): 0.833 | relative viability (LOU-NH91; first compound 8 µM): 0.785 | relative viability (HOP-62; first compound 0.08 µM): 0.917 | relative viability (HOP-62; first compound 0.253 µM): 1.09 | relative viability (HOP-62; first compound 2.53 µM): 0.995 | relative viability (HOP-62; first compound 8 µM): 1.06 | relative viability (NCI-H1437; first compound 0.08 µM): 0.858 | relative viability (NCI-H1437; first compound 0.253 µM): 0.849 | relative viability (NCI-H1437; first compound 0.8 µM): 0.801 | relative viability (NCI-H1437; first compound 2.53 µM): 0.636 | relative viability (NCI-H1437; first compound 8 µM): 0.539 | relative viability (NCI-H2085; first compound 0.08 µM): 0.786 | relative viability (NCI-H2085; first compound 0.253 µM): 0.711 | relative viability (NCI-H2085; first compound 0.8 µM): 0.704 | relative viability (NCI-H2085; first compound 2.53 µM): 0.704 | relative viability (NCI-H2085; first compound 8 µM): 0.698 | relative viability (LCLC-97TM1; first compound 0.08 µM): 0.957 | relative viability (LCLC-97TM1; first compound 0.253 µM): 0.856 | relative viability (LCLC-97TM1; first compound 0.8 µM): 0.957 | relative viability (LCLC-97TM1; first compound 2.53 µM): 0.981 | relative viability (LCLC-97TM1; first compound 8 µM): 0.814 | relative viability (HCC-78; first compound 0.08 µM): 0.484 | relative viability (HCC-78; first compound 0.253 µM): 0.831 | relative viability (HCC-78; first compound 0.8 µM): 0.54 | relative viability (HCC-78; first compound 2.53 µM): 0.608 | relative viability (HCC-78; first compound 8 µM): 0.889 | relative viability (NCI-H1792; first compound 0.08 µM): 0.888 | relative viability (NCI-H1792; first compound 0.253 µM): 0.784 | relative viability (NCI-H1792; first compound 0.8 µM): 0.83 | relative viability (NCI-H1792; first compound 2.53 µM): 0.846 | relative viability (NCI-H1792; first compound 8 µM): 0.869 | relative viability (ABC-1; first compound 0.08 µM): 1.18 | relative viability (ABC-1; first compound 0.253 µM): 0.951 | relative viability (ABC-1; first compound 0.8 µM): 1.13 | relative viability (ABC-1; first compound 2.53 µM): 1.16 | relative viability (ABC-1; first compound 8 µM): 1.22 | relative viability (UMC-11; first compound 0.08 µM): 1.07 | relative viability (UMC-11; first compound 0.253 µM): 0.957 | relative viability (UMC-11; first compound 0.8 µM): 0.821 | relative viability (UMC-11; first compound 2.53 µM): 0.934 | relative viability (UMC-11; first compound 8 µM): 0.56 | relative viability (NCI-H1755; first compound 0.08 µM): 1.01 | relative viability (NCI-H1755; first compound 0.253 µM): 1.01 | relative viability (NCI-H1755; first compound 0.8 µM): 0.951 | relative viability (NCI-H1755; first compound 2.53 µM): 1.03 | relative viability (NCI-H1755; first compound 8 µM): 0.849
